The values below come from PMC1839085, “Crystal structures of an Extracytoplasmic Solute Receptor from a TRAP transporter in its open and closed forms reveal a helix-swapped dimer requiring a cation for α-keto acid binding” (BMC Structural Biology, 2007).

This test concerns the target T1, TakP (Cereibacter sphaeroides, UniProt Q3J1R2).
T1 construct: His6 (C); made in house; host or cells: E. coli BL21
Kind of test: Tryptophan fluorescence quenching titration of ligand binding to TakP. Further details: species or system Rhodobacter sphaeroides. The following applies: for Binding to purified proteins from the SmoM family (qualitative): purified proteins from the SmoM (TakP) family, stated as [15] and this study, method not specified. An excerpt:
We overexpressed and purified TakP from Rhodobacter sphaeroides and confirmed its ability to bind a range of α-keto acids. A general feature of ESRs is that substrate binding is accompanied by a diminished fluorescence from some tryptophan residue(s) as a result of the conformational changes induced by the binding. […] This was accompanied by a shift of the emission peak: the difference spectrum between the unliganded and liganded (quenched) protein has its maximum around 345 nm, whereas the bulk fluorescence from the unliganded form peaks at 335 nm. […] There are 10 Trp residues in the TakP sequence. From the structural information describe below, it turned out that one of these Trp residues (Trp 215) is directly interacting with the ligand when present, so that its fluorescence may be strongly quenched as a result. Two others undergo a significant displacement during the open/closed transition, which may also affect their fluorescence properties. Clearly, the observed amplitude of the fluorescence quenching caused by ligand binding (~30%) implies that these sensitive residues have for some reason a larger relative contribution to the fluorescence emission than the other tryptophans of the protein.
Because of the high binding affinity of these, we had to use a sufficiently low protein concentration to obtain an accurate determination of the dissociation constant, Kd. If the protein concentration is below the Kd, allowing the presence of a significant fraction of free substrate during the titration, the Kd can be determined from a fit of the equation:
F/F0=1−ΔF×[PL]=1−ΔF×0.5(Kd+[P0]+[L0]−(Kd+[P0]+[L0])^2−4[P0][L0]) MathType@MTEF@5@5@+=feaafiart1ev1aaatCvAUfKttLearuWrP9MDH5MBPbIqV92AaeXatLxBI9gBaebbnrfifHhDYfgasaacH8akY=wiFfYdH8Gipec8Eeeu0xXdbba9frFj0=OqFfea0dXdd9vqai=hGuQ8kuc9pgc9s8qqaq=dirpe0xb9q8qiLsFr0=vr0=vr0dc8meaabaqaciaacaGaaeqabaqabeGadaaakeaacqWGgbGrcqGGVaWlcqWGgbGrdaWgaaWcbaGaeGimaadabeaakiabg2da9iabigdaXiabgkHiTiabfs5aejabdAeagjabgEna0kabcUfaBjabdcfaqjabdYeamjabc2faDjabg2da9iabigdaXiabgkHiTiabfs5aejabdAeagjabgEna0kabicdaWiabc6caUiabiwda1maabmaabaGaem4saS0aaSbaaSqaaiabdsgaKbqabaGccqGHRaWkcqGGBbWwcqWGqbaudaWgaaWcbaGaeGimaadabeaakiabc2faDjabgUcaRiabcUfaBjabdYeamnaaBaaaleaacqaIWaamaeqaaOGaeiyxa0LaeyOeI0YaaOaaaeaacqGGOaakcqWGlbWsdaWgaaWcbaGaemizaqgabeaakiabgUcaRiabcUfaBjabdcfaqnaaBaaaleaacqaIWaamaeqaaOGaeiyxa0Laey4kaSIaei4waSLaemitaW0aaSbaaSqaaiabicdaWaqabaGccqGGDbqxcqGGPaqkdaahaaWcbeqaaiabikdaYaaakiabgkHiTiabisda0iabcUfaBjabdcfaqnaaBaaaleaacqaIWaamaeqaaOGaeiyxa0Laei4waSLaemitaW0aaSbaaSqaaiabicdaWaqabaGccqGGDbqxaSqabaaakiaawIcacaGLPaaaaaa@7441@
Here, F is the fluorescence amplitude and F0 its value in the absence of ligand. Δ F is the normalized amplitude of the saturated quenching, [PL] is the concentration of liganded protein, [P0] and [L0] are the concentrations of the total protein and ligand, respectively. The protein concentration was determined from its 280 nm absorbance and pertains here to the monomeric unit (see below).
Fluorescence spectroscopy was performed using a Varian Cary Eclipse spectrofluorimeter with an excitation wavelength of 290 nm. The emission spectra were recorded between 300 and 500 nm. Ligand binding was determined from the partial quenching of this fluorescence emission. To gain a more accurate determination of the dissociation constant, the protein concentration was lowered down to 50 nM (in 50 mM Tris/HCl, pH 7) and the amplitude of the fluorescence emission was computed from an integration of the emission over the 315 nm to 360 nm range.

T1 sequence (Q3J1R2 27-365): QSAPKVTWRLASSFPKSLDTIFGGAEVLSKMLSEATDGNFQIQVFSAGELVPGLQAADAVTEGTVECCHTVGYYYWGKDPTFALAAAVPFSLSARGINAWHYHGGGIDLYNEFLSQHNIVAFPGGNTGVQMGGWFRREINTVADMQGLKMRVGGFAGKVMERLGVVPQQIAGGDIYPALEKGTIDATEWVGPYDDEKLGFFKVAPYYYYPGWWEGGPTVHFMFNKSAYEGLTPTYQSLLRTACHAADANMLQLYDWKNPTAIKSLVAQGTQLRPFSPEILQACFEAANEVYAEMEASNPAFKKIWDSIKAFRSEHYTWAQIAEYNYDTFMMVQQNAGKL

On to `CCC(=O)C(=O)O` [Oxobutyrate, oxobutyrate], for which binding was put at a Kd of 43 ± 4 nM.
With `OC[C@@H](O)[C@@H](O)[C@H](O)[C@H](O)CO` [mannitol], the “Binding to purified proteins from the SmoM family (qualitative)” value was “neither bind”.
Turning to `OC[C@@H](O)[C@@H](O)[C@H](O)[C@@H](O)CO` [sorbitol], the “Binding to purified proteins from the SmoM family (qualitative)” value is recorded as “neither bind”.
For the compound `O=C(O)CCC(=O)C(=O)O` [α-ketoglutarate], the “Binding to TakP (qualitative)” value (fluorescence quenching titration) is on record as “No binding”.
`CC(=O)C(=O)O` [Pyruvate, pyruvate]: the Kd (in general, the concentration at which binding is half-saturated) was found to be 270 ± 20 nM.
Regarding `CCCC(=O)C(=O)O` [Oxovalerate, oxovalerate], the Kd was determined as 18 ± 3 nM.
On the same count and under the same terms, with `CC(C)CC(=O)C(=O)O` [4-Methyl-2-Oxovalerate] the figure was 720 ± 55 nM.
